Nine compounds from US10081634B2, “Heterocyclic compound” (Daewoong Pharmaceutical Co., Ltd., priority 2014, dated 2018) can be followed below.

SMILES strings stand for the structures. Bounds are passed on as bounds.

The target in assay [1] is T1, PRS (prolyl-tRNA synthetase) (Homo sapiens, UniProt P07814).
T1 construct: the portion corresponding to PRS in cDNA of EPRS was subcloned; made in house
T1 sequence (P07814 1007-1512 limits assumed): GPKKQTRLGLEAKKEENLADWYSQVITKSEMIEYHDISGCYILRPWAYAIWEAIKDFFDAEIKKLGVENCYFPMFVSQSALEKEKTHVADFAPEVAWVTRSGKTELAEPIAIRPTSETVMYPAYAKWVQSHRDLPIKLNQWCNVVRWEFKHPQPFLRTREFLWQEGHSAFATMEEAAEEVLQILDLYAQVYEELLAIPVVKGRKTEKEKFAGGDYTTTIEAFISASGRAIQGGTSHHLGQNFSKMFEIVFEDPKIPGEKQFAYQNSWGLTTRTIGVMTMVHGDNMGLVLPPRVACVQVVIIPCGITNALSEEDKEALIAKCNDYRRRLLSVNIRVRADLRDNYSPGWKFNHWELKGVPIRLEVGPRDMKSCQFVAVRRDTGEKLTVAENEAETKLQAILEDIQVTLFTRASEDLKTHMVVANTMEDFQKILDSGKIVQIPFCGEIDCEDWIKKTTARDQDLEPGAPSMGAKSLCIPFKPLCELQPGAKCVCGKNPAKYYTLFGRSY
Description: In vitro PRS enzyme activity inhibition experiment ([3H]proline, liquid scintillation). In kind it is biochemical. The following applies: purified PRS protein subcloned from EPRS cDNA; 37° C., 5 to 10 minutes; read-out: PRS IC50. The method in brief: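 Purified human PRS domain subcloned from EPRS cDNA, reacted at 37 °C for 5–10 min in 20 mM KPO4 pH 7.4, 6 mM MgAc, 5 mM ATP, tRNA, 0.5 mM DTT and [3H]proline. Compounds tested at 1 μM. Aminoacylation read on TCA-treated filter paper by liquid scintillation, giving % inhibition or IC50.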

Assay [2] concerns NCI-H460 cells. Description: Cancer cell growth inhibition experiment (MTT assay). The assay is classed as cell-based. The following applies: Homo sapiens; NCI-H460 lung cancer cell line; 48 hours treatment; MTT cell viability. The procedure, abridged: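 NCI-H460 lung cancer cells seeded at 6,000–12,000 cells/well in 5% FBS medium, settled 24 h, then exposed to compound at 0.01–100 μM for 48 h at 37°C, 5% CO2. MTT viability read-out; IC50 calculated and binned into A (≤5 μM), B (5–30 μM), C (≥30 μM).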

As a reminder, the IC50 is the concentration that gives 50% inhibition. Consider `Cc1c(Cl)cnc2c1ncn2CC(=O)C[C@H]1NCCC[C@@H]1O` [Example 39, 1-(6-chloro-7-methyl-3H-imidazo[4,5-b]pyridin-3-yl)-3-((2R,3S)-3-hydroxypiperidin-2-yl)propan-2-one], for which the figures for the IC50 in assay [1] and in assay [2] were less than 0.1 µM and not above 5 µM, respectively.

Consider `OC(C[C@H]1NCCC[C@@H]1O)Cn1cnc2cc(Cl)c(Cl)cc21` (stereo partly drawn) [Example 70, (2R,3S)-2-(3-(5,6-dichloro-1H-benzo[d]imidazol-1-yl)-2-hydroxypropyl)piperidin-3-ol], for which the values for the IC50 in assay [1] and in assay [2] were 0.1 to 0.5 µM and 5 to 30 µM, respectively.

For the compound `O=C(C[C@@H]1CCCN1)Cn1cnc2cc(Cl)c(Cl)cc21` [Example 90, (S)-1-(5,6-dichloro-1H-benzo[d]imidazol-1-yl)-3-(pyrrolidin-2-yl)propan-2-one], the values for the IC50 in assay [1] and in assay [2] were more than 0.5 µM and not below 30 µM, respectively.

As to `O[C@H]1CCCN[C@@H]1CC(F)Cn1cnc2cc(Cl)c(Cl)cc21` (stereo partly drawn) [Example 81, (2R,3S)-2-(3-(5,6-dichloro-1H-benzo[d]imidazol-1-yl)-2-fluoropropyl)piperidin-3-ol], the values for the IC50 in assay [1] and in assay [2] were more than 0.5 µM and not below 30 µM, respectively.

As to `Cc1c(Cl)ccc2ncn(CC(=O)C[C@H]3NCCC[C@@H]3O)c12` [Example 28, 1-(6-chloro-7-methyl-1H-benzo[d]imidazol-1-yl)-3-((2R,3S)-3-hydroxypiperidin-2-yl)propan-2-one], the figures for the IC50 in assay [1] and in assay [2] were less than 0.1 µM and not below 30 µM, respectively.

With `O=C(C[C@H]1NCCC[C@@H]1O)Cn1cnc2ccccc21` [Example 1, 1-(1H-benzo[d]imidazol-1-yl)-3-((2R,3S)-3-hydroxypiperidin-2-yl)propan-2-one], the IC50 is more than 0.5 µM in assay [1] and not below 30 µM in assay [2].

With `O=C(C[C@H]1NCCC[C@@H]1O)Cn1c(CO)nc2cccc(OC(F)(F)F)c21` [Example 61, 1-(2-(hydroxymethyl)-7-(trifluoromethoxy)-1H-benzo[d]imidazol-1-yl)-3-((2R,3S)-3-hydroxypiperidin-2-yl)propan-2-one], the half-maximal inhibitory concentration (IC50) was more than 0.5 µM in assay [1] and not below 30 µM in assay [2].

As to `Cc1c(Cl)ccc2c1ncn2CC(=O)C[C@H]1NCCC[C@@H]1O` [Example 14, 1-(5-chloro-4-methyl-1H-benzo[d]imidazol-1-yl)-3-((2R,3S)-3-hydroxypiperidin-2-yl)propan-2-one], the IC50 is less than 0.1 µM in assay [1] and not above 5 µM in assay [2].

`O=C(C[C@H]1NCCC[C@@H]1O)Cn1cnc2cccc(C(F)(F)F)c21` [Example 8, 1-((2R,3S)-3-hydroxypiperidin-2-yl)-3-(7-(trifluoromethyl)-1H-benzo[d]imidazol-1-yl)propan-2-one]: the IC50 was less than 0.1 µM in assay [1] and 5 to 30 µM in assay [2].
